The record followed here is patent US20100041665A1, “N-PHENYL-PRENYLAMINE DERIVATIVES FOR THE TREATMENT OF COGNITIVE, NEURODEGENERATIVE OR NEURONAL DISEASES OR DISORDERS” (NOSCIRA, S.A., priority 2006, published 2010).

Each structure is given as a SMILES string.

Experiment [1] concerns the target T1, rhBACE-1 β-Secretase recombinant human (Homo sapiens, UniProt P56817).
T1 construct: purchased R&D Systems 931-AS
Nature of the experiment: BACE assay (FRET). Format: biochemical. The note with it: percentage of enzyme activity. The text has this:
The aim of this assay is to determine if a compound, either synthetic or of marine origin, is a BACE-1 inhibitor, to avoid the formation of Aβ. This assay is based on FRET technology (Fluorescence Resonance Energy Transfer). FRET is used to measure cleavage of a peptide substrate, among other uses. […] When a substrate peptide cleavage occurs, the energy balance is broken and all the donor fluorescence can be observed. The increase in fluorescence is linearly related to the rate of proteolysis (Gordon, G W et al., 1998). In this assay the reaction occurs between an enzyme, purified BACE-1, and a fluorogenic peptidic substrate who present the “Swedish mutation”. The peptide cleavage by BACE-1 produces fluorescence energy and enzymatic activity can be quantified.
The reagents which are used in this assay are the following: • rhBACE-1 β-Secretase recombinant human (R&D Systems. Ref. 931-AS). • Fluorogenic Peptide Substrate IV (R&D Systems. Ref. ES004). • Beta-SECRETASE INHIBITOR H-4848. (BACHEM. Ref. H-4848.0001). • Sodium acetate.
The assay is carried out in a 96 wells microplate. The final concentration of substrate is 3.5 μM per well, and the enzyme concentration is 0.5 μg/ml. The final volume of the assay is 100 μl per well and all reagents are diluted in Reaction Buffer. The compounds are tested at a concentration of 10^−5 and 10^−6 M. The control in the assay is the commercial inhibitor β-Secretase inhibitor H-4848 from BACHEM, which is tested at 300 nM. All the samples and controls are studied by duplicate.
The plate is mixed gently and changes in the fluorescence are measured using a fluorimeter plate reader, with 320 nm excitation filter and 405 nm emission filter. The temperature should be preferably maintained between 25 and 30° C. Measurements are carried out every ten minutes during an hour. The first measure is subtracted from the last to calculate the fluorescence increase, evaluating the enzymatic activity. The 100% activity is calculated as the mean of the results of wells without sample or inhibitor.
In the cases where abnormal effects in fluorescence were detected, BACE inhibition activity was assayed using BACE-1 (beta-Secretase) FRET ASSAY KIT (Invitrogen, Ref. P2985). Fluorescence was measured with a fluorimeter plate reader, with 544 nm excitation filter and 580 nm emission filter.
(§1) The compounds of formula (I) of the present invention where submitted to the above indicated assays, in order to determine both their GSK-3 inhibition activity and BACE activity inhibition. The results are indicated in Table I and Table II, in percentage of the respective enzyme activity.

The target in experiment [2] is Recombinant human glycogen synthase kinase 3 beta (Homo sapiens, UniProt P49841). The experiment is described as follows: GSK-3 beta inhibition assay. The experiment is classed as biochemical. The note with it: 0.5 h, percentage of enzyme activity; for remaining activity at 25 µM: compound at 25 μM; for remaining activity at 50 µM: compound at 50 μM. As to the method: GSK-3 beta Inhibition Assay
The GSK-3 beta activity of the compounds of formula (I) according to the present invention was determined by incubation of a mixture of recombinant human GSK-3 enzyme, a phosphate source and GSK-3 substrate in the presence and in the absence of the corresponding test compound, and by measuring the GSK-3 activity of this mixture. The compounds where tested at final concentrations of 25 and 50 μM.
Recombinant human glycogen synthase kinase 3 beta was assayed in MOPS 11 mM, pH 7.4, EDTA 0.2 mM, EGTA 1.25 mM, MgCl2 26.25 mM and sodium orthovanadate 0.25 mM in the presence of 62.5 μM of Phospho-Glycogen Synthase Peptide-2 (GS-2), 0.5 μCi gamma-^33P-ATP and unlabelled ATP at a final concentration of 12.5 μM. The final assay volume was 20 μl. After incubation for 30 minutes at 30° C., 15 μl aliquots were spotted onto P81 phosphocellulose papers. Filters were washed four times for at least 10 minutes each and counted with 1.5 ml of scintillation cocktail in a scintillation counter.
as §1

Chain of Recombinant human glycogen synthase kinase 3 beta (P49841 whole entry): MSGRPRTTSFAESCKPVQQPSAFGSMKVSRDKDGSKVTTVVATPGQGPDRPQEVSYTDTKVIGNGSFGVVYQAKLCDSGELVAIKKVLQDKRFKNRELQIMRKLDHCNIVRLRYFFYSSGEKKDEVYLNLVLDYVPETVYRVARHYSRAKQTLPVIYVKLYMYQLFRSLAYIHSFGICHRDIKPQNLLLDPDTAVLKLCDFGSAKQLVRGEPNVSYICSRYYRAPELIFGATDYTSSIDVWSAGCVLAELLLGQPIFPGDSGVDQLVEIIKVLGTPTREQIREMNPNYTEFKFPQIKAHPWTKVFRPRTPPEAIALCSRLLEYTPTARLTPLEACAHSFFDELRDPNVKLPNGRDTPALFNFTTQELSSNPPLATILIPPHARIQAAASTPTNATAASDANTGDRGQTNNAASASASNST
T1 sequence (P56817 46-457 limits assumed): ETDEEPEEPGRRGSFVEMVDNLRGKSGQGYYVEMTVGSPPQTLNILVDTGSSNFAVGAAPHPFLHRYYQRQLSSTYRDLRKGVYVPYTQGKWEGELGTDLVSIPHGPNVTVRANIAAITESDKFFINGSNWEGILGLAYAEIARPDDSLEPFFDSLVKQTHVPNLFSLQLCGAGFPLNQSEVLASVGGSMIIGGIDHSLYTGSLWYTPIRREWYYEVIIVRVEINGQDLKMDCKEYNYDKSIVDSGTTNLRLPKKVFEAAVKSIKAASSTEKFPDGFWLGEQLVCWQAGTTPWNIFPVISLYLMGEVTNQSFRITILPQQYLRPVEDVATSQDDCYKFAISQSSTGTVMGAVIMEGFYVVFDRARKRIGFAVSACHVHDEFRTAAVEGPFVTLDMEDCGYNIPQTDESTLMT

One may read the remaining activity as the signal under treatment as a percentage of the control signal. `COC(=O)c1ccc(OC)c(N(CC=C(C)CCC=C(C)CCC=C(C)C)C(=O)OC(C)(C)C)c1` [Compound 33, 3-[tert-Butoxycarbonyl-(3,7,11-trimethyl-dodeca-2,6,10-trienyl)-amino]-4-methoxy-benzoic acid methyl ester]: in experiment [1] (compound at 1 μM), the “% of BACE activity” value is given as 92 ± 4%. Also, the “% of BACE activity” value in experiment [1] (compound at 10 μM) stood at 61 ± 17%. In experiment [2], the remaining activity at 25 µM is 27.9% and the remaining activity at 50 µM was 19.8%.
On the same counts, the results for `CC(C)=CCC/C(C)=C/CC/C(C)=C/CN(C/C=C(\C)CC/C=C(\C)CCC=C(C)C)c1cccc(C(=O)O)c1` [Compound 23] are 41 ± 12%, 0%, 37.4% and 21.6%.
On to `COC(=O)c1ccc(OC)c(NCC=C(C)CCC=C(C)COC2CCCCO2)c1` (stereo not shown) [Compound 36, 3-[3,7-Dimethyl-8-(tetrahydro-pyran-2-yloxy)-octa-2,6-dienylamino]-4-methoxy-benzoic acid methyl ester], for which the “% of BACE activity” value in experiment [1] (compound at 1 μM) worked out at 45 ± 12%. Besides, the “% of BACE activity” value in experiment [1] (compound at 10 μM) is given as 7 ± 7%. Also, in experiment [2], the remaining activity at 25 µM was 79.7% and the remaining activity at 50 µM is 80.1%.
On the same counts, the results for `COc1ccc(C(=O)N2CCN(CCO)CC2)cc1N(CC=C(C)CCC=C(C)C)CC=C(C)CCC=C(C)C` [Compound 39, {3-[Bis-(3,7-dimethyl-octa-2,6-dienyl)-amino]-4-methoxy-phenyl}-[4-(2-hydroxy-ethyl)-piperazin-1-yl]-methanone] are 100%, 100%, 55.1% and 13.2%.
On the same counts, the results for `CCC(C)Oc1ccc(C(=O)OC)cc1NCC=C(C)CCC=C(C)CCC=C(C)C` (stereo not shown) [Compound 40, 4-sec-Butoxy-3-(3,7,11-trimethyl-dodeca-2,6,10-trienylamino)-benzoic acid methyl ester] are 100%, 100%, 111% and 99.4%.
On the same counts, the results for `CC(C)=CCC/C(C)=C/CN(C/C=C(\C)CCC=C(C)C)c1cccc(C(=O)O)c1` [Compound 24] are 24 ± 12%, 1.6 ± 2%, 37.4% and 24.6%.
As to `COC(=O)c1ccc(OC)c(N(CC=C(C)CCC=C(C)COC2CCCCO2)CC=C(C)CCC=C(C)COC2CCCCO2)c1` (stereo not shown) [Compound 37, 3-{Bis-[3,7-dimethyl-8-(tetrahydro-pyran-2-yloxy)-octa-2,6-dienyl]-amino}-4-methoxy-benzoic acid methyl ester], the results for the “% of BACE activity” value in experiment [1] (compound at 1 μM) and in experiment [1] (compound at 10 μM) were 50 ± 4% and 6.5 ± 1%, respectively. In addition, the remaining activity at 25 µM in experiment [2] came out at 24.6%. Further, the remaining activity at 50 µM in experiment [2] worked out at 1.71%.
For `COC(=O)c1ccc(O)c(N(CC=C(C)CCC=C(C)CCC=C(C)C)CC=C(C)CCC=C(C)CCC=C(C)C)c1` [Compound 28, 3-[Bis-(3,7,11-trimethyl-dodeca-2,6,10-trienyl)-amino]-4-hydroxy-benzoic acid methyl ester] the same measures were 83 ± 12%, 40.5 ± 19%, 48.5% and 20.7%.
On the same counts, the results for `COCOc1ccc(C(=O)OC)cc1NC/C=C(\C)CC/C=C(\C)CCC=C(C)C` [Compound 14] are 60 ± 17%, 4 ± 6%, 61.8% and 25.4%.
For `CC(C)=CCC/C(C)=C/CC/C(C)=C/CNc1cc(C(=O)O)ccc1O` [Compound 48] the same measures were 100%, 36.5 ± 0.7%, 105% and 97.9%.
